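Compound exposure: 48 hours, 5 concentrations, 96-well plates. Abbreviation: GI50, concentration required for 50% inhibition of growth.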 The source made the active and inactive calls. Rule as the data show it: active = GI50 up to about 1.1 µM and inactive = higher.

Among the test systems are SN12C; SF-295; SK-MEL-5; SF-268; MCF7; UACC-257; MOLT-4; HCT-116; OVCAR-8; Hs-578T; CCRF-CEM; 786-0; HCT-15; A498; UO-31; MDA-MB-435; HCC 2998; HOP-62; OVCAR-5; SNB-75.
Common to all, as to assay: growth of human tumour cells (NCI), 48 h

With `COc1ccc(OC)c2c1C=CC(Br)=CC2`, the GI50 was 0.372 µM (active) with SN12C; 0.16 µM (active) with SF-295; 0.216 µM (active) in the assay with SK-MEL-5; 0.313 µM (active) in the assay with SF-268; 0.295 µM (active) in the assay with MCF7; 0.255 µM (active) in the assay with UACC-257. For the same molecule, the GI50 is 0.144 µM (active) with MOLT-4; 0.232 µM (active) with HCT-116; 0.43 µM (active) with OVCAR-8; 0.224 µM (active) in the assay on Hs-578T; 0.39 µM (active) in the assay on CCRF-CEM; 0.193 µM (active) in the assay with 786-0. The GI50 in the assay with HCT-15 was 0.201 µM; with A498 it was 0.324 µM (active); in the assay on UO-31 it was 0.332 µM (active); with MDA-MB-435, 0.239 µM (active); in the assay with HCC 2998, 0.195 µM (active); in the assay on HOP-62, 0.269 µM (active).
For the molecule `COc1c(C)c(OC)c2c(c1O)[C@@H]1[C@@H]3Cc4c(OC)c(C)c(OC)c(O)c4[C@H](CNC(=O)c4ccc5ccccc5n4)N3[C@@H](C#N)[C@H](C2)N1C`, the GI50 in the assay with SN12C was 0.00103 µM (active); with SF-295 it was 0.0018 µM (active); in the assay on SK-MEL-5, 0.000495 µM (active); in the assay on SF-268 it was 0.000883 µM (active); in the assay with MCF7, 0.000424 µM (active); in the assay on UACC-257, 0.00206 µM (active). In addition, the GI50 with MOLT-4 was 0.00016 µM (active); with HCT-116, 0.000491 µM (active); in the assay on OVCAR-8 it was 0.00181 µM (active); with OVCAR-5, 0.000726 µM (active); with Hs-578T, 0.00124 µM (active); with 786-0, 0.000494 µM (active). Besides, the GI50 is 0.0101 µM in the assay with HCT-15; 0.000629 µM (active) in the assay with A498; 0.00227 µM (active) in the assay on UO-31; 0.00116 µM (active) with MDA-MB-435; 0.00014 µM (active) in the assay on HCC 2998; 0.00112 µM (active) with HOP-62. The GI50 in the assay with SNB-75 is 0.00262 µM (active).
On to `CCOC(=O)/C=C/C1=C(Br)[C@@]2(C)CC[C@@H]3c4ccc(O)cc4CC[C@H]3[C@@H]2C1`, for which the GI50 with SN12C was 13.6 µM (inactive); in the assay on SF-295, 15.8 µM (inactive); in the assay on SK-MEL-5 it was 13.6 µM (inactive); with SF-268, 19 µM (inactive); in the assay with MCF7, 13.6 µM (inactive); in the assay on UACC-257, 13.9 µM (inactive). For the same molecule, the GI50 with MOLT-4 is 12.5 µM (inactive); in the assay on HCT-116, 13.7 µM (inactive); in the assay with OVCAR-5 it was 15.2 µM (inactive); in the assay with Hs-578T it was 15.6 µM (inactive); in the assay on CCRF-CEM, 7.83 µM (inactive); with 786-0, 12.8 µM (inactive). Besides, the GI50 in the assay with HCT-15 was 12.1 µM; in the assay with A498, 18.1 µM (inactive); with UO-31 it was 16.8 µM (inactive); with MDA-MB-435, 15.2 µM (inactive); in the assay on HCC 2998 it was 14.8 µM (inactive); in the assay on HOP-62, 14.4 µM (inactive).
For the molecule `COc1cccc(-c2ccc3c4c2O[C@H]2c5[nH]c6ccccc6c5C[C@@]5(O)[C@@H](C3)N(CC3CC3)CC[C@]425)c1`, the GI50 is 1.67 µM (inactive) in the assay with SN12C; 1.71 µM (inactive) with SF-295; 1.94 µM (inactive) with SK-MEL-5; 1.61 µM (inactive) in the assay with SF-268; 1.69 µM (inactive) in the assay with MCF7; 1.74 µM (inactive) in the assay on UACC-257. Moreover, the GI50 in the assay on MOLT-4 is 0.82 µM (active); with HCT-116, 1.63 µM (inactive); in the assay with OVCAR-8, 1.65 µM (inactive); in the assay with OVCAR-5, 7.08 µM (inactive); in the assay with Hs-578T, 1.49 µM (inactive); in the assay on CCRF-CEM it was 3.29 µM (inactive). Further, the GI50 in the assay on 786-0 is 1.7 µM (inactive); in the assay on HCT-15, 1.84 µM; in the assay on A498, 2.19 µM (inactive); in the assay on UO-31, 1.72 µM (inactive); in the assay on MDA-MB-435 it was 1.77 µM (inactive); in the assay on HCC 2998 it was 1.53 µM (inactive). Further, the GI50 with HOP-62 is 1.74 µM (inactive).
In the case of `Cc1cccc(-n2c(C)nc3ccc(NC4OC(CO)C(O)C(O)C4O)cc3c2=O)c1` (stereo not drawn), the GI50 in the assay with SN12C, in the assay with SF-295, in the assay on SK-MEL-5, in the assay on SF-268, with MCF7 and in the assay on UACC-257 was > 100 µM (inactive) in each case. The GI50 in the assay with MOLT-4, with HCT-116, in the assay with OVCAR-8, in the assay on OVCAR-5, with Hs-578T and with 786-0 was > 100 µM (inactive) each time. The GI50 was > 100 µM in the assay with HCT-15; > 100 µM (inactive) with A498; > 100 µM (inactive) in the assay on UO-31; > 100 µM (inactive) in the assay on MDA-MB-435; > 100 µM (inactive) in the assay with HCC 2998; > 100 µM (inactive) in the assay on HOP-62. Moreover, the GI50 in the assay on SNB-75 was > 100 µM (inactive).
For `CCOC(=O)C(C(N)=O)C1=Nc2cc([N+](=O)[O-])ccc2N/C1=C\C(=O)c1ccccc1` (stereo not drawn), the GI50 in the assay on SN12C is 23.1 µM (inactive); in the assay on SF-295 it was 16.7 µM (inactive); in the assay on SK-MEL-5, 16.7 µM (inactive); with SF-268, 12.7 µM (inactive); in the assay with MCF7 it was 12.4 µM (inactive); with UACC-257, 19.8 µM (inactive). Also, the GI50 with HCT-116 was 15 µM (inactive); in the assay on OVCAR-8 it was 16.4 µM (inactive); in the assay with OVCAR-5, 24 µM (inactive); with Hs-578T, 16.5 µM (inactive); with 786-0, 11.4 µM (inactive); with HCT-15, 12.6 µM. For the same molecule, the GI50 in the assay with A498 is 16.6 µM (inactive); in the assay on UO-31, 19.5 µM (inactive); in the assay on MDA-MB-435 it was 15.8 µM (inactive); in the assay on HCC 2998 it was 10.1 µM (inactive); in the assay on HOP-62, 10.9 µM (inactive); in the assay with SNB-75, 17.7 µM (inactive).
With `O=C(O)c1cccc(/N=N/c2c(S(=O)(=O)O)ccc3c2C(=O)c2ccccc2C3=O)c1O`, the GI50 in the assay on SN12C, in the assay on SF-295, in the assay on SK-MEL-5, in the assay with SF-268, with MCF7 and in the assay with UACC-257 was > 100 µM (inactive) each time. In addition, the GI50 in the assay on MOLT-4, with HCT-116, with OVCAR-8, in the assay with OVCAR-5, with Hs-578T and in the assay on CCRF-CEM was > 100 µM (inactive) in each case. Besides, the GI50 was > 100 µM (inactive) with 786-0; > 100 µM in the assay on HCT-15; > 100 µM (inactive) with A498; > 100 µM (inactive) with UO-31; > 100 µM (inactive) in the assay with MDA-MB-435; > 100 µM (inactive) with HOP-62. Besides, the GI50 with SNB-75 is > 100 µM (inactive).
On to `O=C(c1ccccc1)N1CCC(Nc2cccnc2)O1` (stereo not drawn), for which the GI50 in the assay on SN12C, with SF-295, with SK-MEL-5, in the assay on SF-268, in the assay with MCF7 and with MOLT-4 was > 100 µM (inactive) each time. The GI50 with HCT-116 is > 100 µM (inactive); with OVCAR-8 it was > 100 µM (inactive); in the assay with OVCAR-5, > 100 µM (inactive); in the assay with Hs-578T it was 7.64 µM (inactive); with CCRF-CEM, > 100 µM (inactive); with 786-0, > 100 µM (inactive). Also, the GI50 with HCT-15 was > 100 µM; in the assay on A498, > 100 µM (inactive); in the assay on UO-31, > 100 µM (inactive); in the assay on MDA-MB-435, > 100 µM (inactive); in the assay with HCC 2998, 50.8 µM (inactive); in the assay with HOP-62, > 100 µM (inactive).

The values are drawn from ChEMBL document CHEMBL1201862, “PubChem BioAssay data set” (2004).
